The source of these data is patent EP0894089B9, “NOVEL HETEROCYCLIC COMPOUNDS HAVING ANTIDIABETIC, HYPOLIPIDAEMIC, ANTIHYPERTENSIVE PROPERTIES, PROCESS FOR THEIR PREPARATION AND PHARMACEUTICAL COMPOSITIONS CONTAINING THEM” (Dr. Reddy's Laboratories Ltd., priority 1997, dated 1997).

Where a name gives a salt, the structure may show the parent alone.

The subject of the assay is C57BL/KsJ-db/db mice. As to the kind of experiment: blood sugar and triglycerides lowering activity in db/db mice (in vivo). Conditions: male C57BL/KsJ-db/db mice; for Triglyceride Lowering (%) / Reduction in Blood Glucose Level (%): 30 mg / kg oral gavage daily for 6 days, one hour after administration; for Triglyceride Lowering (%): plasma triglyceride on 6th day; for Reduction in Blood Glucose Level (%): random plasma glucose on 6th day. The source says:
Mutation in colonies of laboratory animals and different sensitivities to dietary regimens have made the development of animal models with non-insulin dependent diabetes associated with obesity and insulin resistance possible. Genetic models such as db/db and ob/ob (See Diabetes, (1982) 31(1) : 1- 6) in mice and fa/fa and zucker rats have been developed by the various laboratories for understanding the pathophysiology of disease and testing the efficacy of new antidiabetic compounds (Diabetes, (1983) 32: 830-838; Annu. Rep. Sankyo Res. Lab. (1994). 46 : 1-57). The homozygous animals, C57 BL/KsJ-db/db mice developed by Jackson Laboratory, US, are obese, hyperglycemic, hyperinsulinemic and insulin resistant (J. Clin. Invest., (1990) 85 : 962-967), whereas heterozygous are lean and normoglycemic. In db/db model, a mouse progressively develops insulinopenia with age, a feature commonly observed in late stages of human type II diabetes when blood sugar levels are insufficiently controlled. The state of pancreas and its course vary according to the models. Since this model resembles that of type II diabetes mellitus, the compounds of the present invention were tested for blood sugar and triglycerides lowering activities.
Male C57BL/KsJ-db/db mice of 8 to 14 weeks age, having body weight range of 35 to 60 grams, procured from the Jackson Laboraotory, USA, were used in the experiment. The mice were provided with standard feed (National Institute of Nutrition, Hyderabad, India) and acidified water, ad libitum. The animals having more than 300 mg / dl blood sugar were used for testing. The number of animals in each group was 4.
The random blood sugar and triglyceride levels were measured by collecting blood (100 µl) through orbital sinus, using heparinised capillary in tubes containing EDTA which was centrifuged to obtain plasma. The plasma glucose and triglyceride levels were measured spectrometrically, by glucose oxidase and glycerol-3-PO4 oxidase/peroxidase enzyme (Dr. Reddy's Lab. Diagnostic Division Kits, Hyderabad, India) methods respectively. On 6th day the blood samples were collected one hour after administration of test compounds / vehicle for assessing the biological activity.
Test compounds were suspended on 0.25 % carboxymethyl cellulose and administered to test group at a dose of 30 mg / kg through oral gavage daily for 6 days. The control group received vehicle (dose 10 ml / kg).
The blood sugar and triglycerides lowering activities of the test compound was calculated according to the formula: Blood sugar / triglycerides lowering activity (%) = 1 -(DT/DC)/(TC/ZC)X 100 [formula] • ZC = Zero day control group value • DC = Zero day treated group value • TC = Control group value on test day • DT = Treated group value on the test day

As to `Cc1c(C)c2c(c(C)c1OCc1ccccc1)CCC(C)(CN1CCC[C@H]1COc1ccc(CC3SC(=O)NC3=O)cc1)O2` (stereo partly drawn) [Example 7, 5-[4-[N-(2RS)-6-Benzyloxy-2,5,7,8,-tetramethylchroman-2-ylmethyl]-(2S)-pyrrolidine-2-methoxy]phenyl methyl]thiazolidine-2,4-dione, sodium salt], the “Triglyceride Lowering (%)” value was determined as 70% and the “Reduction in Blood Glucose Level (%)” value was 36%. For `Cc1c(C)c2c(c(C)c1OCc1ccccc1)C(CN1CCC[C@H]1COc1ccc(C=C3SC(=O)NC3=O)cc1)C(C)(C)O2` (stereo partly drawn) [Example 13, 5-[4-[N-[3(RS)-5-Benzyloxy-2,3-dihydro-2,2,4,6,7-pentamethylbenzofuran-3-ylmethyl]-(2S)-pyrrolidine-2-methoxy]phenylmethylene]thiazolidine-2,4-dione maleate], the “Triglyceride Lowering (%)” value stood at 42% and the “Reduction in Blood Glucose Level (%)” value was found to be 45%. `Cc1c(C)c2c(c(C)c1O)CCC(C)(COc1ccc(CC3SC(=O)NC3=O)cc1)O2` (stereo not shown) [Troglitazone, reference compound]: under “100 mg / kg, daily dose, on 6th day”, the “reduction in random blood sugar level” value is given as 28%. In the case of `Cc1oc2c(C)c(C)c(OCc3ccccc3)c(C)c2c1CN1CCC[C@H]1COc1ccc(C=C2SC(=O)NC2=O)cc1` [Example 20, 5-[4-[N-(5-Benzyloxy-2,4,6,7-tetramethylbenzofuran-3-ylmethyl)-(2S)-pyrrolidine-2-methoxy]phenylmethylene]thiazolidine-2,4-dione], the “Triglyceride Lowering (%)” value was found to be 43% and the “Reduction in Blood Glucose Level (%)” value is 16%.
